# Test results from ChEMBL document CHEMBL3046345, “Synthesis of novel pyrazole and pyrimidine derivatives bearing sulfonamide moiety as antitumor and radiosensitizing agents” (Med Chem Res, 2012).
# Assays:
# HepG2 [1] = test: Cytotoxicity against Homo sapiens (human) HepG2 cells at 12.5 uM relative to control; assay type: functional
# MCF7 = test: Anticancer activity against Homo sapiens (human) MCF7 cells after 48 hr by SRB assay; assay type: functional, cell-based; conditions: MCF7, 48 h
# HepG2 [2] = test: Potentiation of gamma-irradiation-induced cytotoxicity against Homo sapiens (human) HepG2 cells at 40 uM relative to control; assay type: functional
# HepG2 [3] = test: Cytotoxicity against Homo sapiens (human) HepG2 cells at 5 uM relative to control; assay type: functional
# HepG2 [4] = test: Cytotoxicity against Homo sapiens (human) HepG2 cells at 25 uM relative to control; assay type: functional
# HepG2 [5] = test: Potentiation of gamma-irradiation-induced cytotoxicity against Homo sapiens (human) HepG2 cells at 25 uM relative to control; assay type: functional
# HepG2 [6] = test: Potentiation of gamma-irradiation-induced cytotoxicity against Homo sapiens (human) HepG2 cells at 12.5 uM relative to control; assay type: functional
# HepG2 [7] = test: Anticancer activity against Homo sapiens (human) HepG2 cells after 48 hr by SRB assay; assay type: functional, cell-based; conditions: HepG2, 48 h
# HepG2 [8] = test: Cytotoxicity against Homo sapiens (human) HepG2 cells at 40 uM relative to control; assay type: functional
# HepG2 [9] = test: Potentiation of gamma-irradiation-induced cytotoxicity against Homo sapiens (human) HepG2 cells at 5 uM relative to control; assay type: functional
IC50 (MCF7),IC50 (HepG2 [7]),SMILES,Activity (HepG2 [1]),Activity (HepG2 [2]),Activity (HepG2 [3]),Activity (HepG2 [4]),Activity (HepG2 [5]),Activity (HepG2 [6]),Activity (HepG2 [8]),Activity (HepG2 [9])
5.1 µM,3.49 µM,NC1=NN(c2ccccc2)C(=O)/C1=C/Nc1ccc(S(=O)(=O)Nc2ccccn2)cc1,57.82%,91.8%,39.49%,66.9%,76.7%,80.8%,80.2%,62.1%
6.98 µM,3.76 µM,Cc1cc(C)nc(NS(=O)(=O)c2ccc(N/C=C3/C(=N)N(c4ccccc4)N=C3N)cc2)n1,64.14%,88.4%,47.94%,74.3%,92.9%,86%,80.7%,75.69%
7.78 µM,3.22 µM,N=C1NN=C(N)/C1=C\Nc1ccc(S(=O)(=O)Nc2cnc3ccccc3n2)cc1,55.27%,88.2%,18.15%,73.2%,80.6%,67%,85.8%,53.6%
6.71 µM,3.21 µM,NC1=NN(c2ccccc2)C(=O)/C1=C/Nc1ccc(S(=O)(=O)Nc2cnc3ccccc3n2)cc1,65.3%,88.5%,40.36%,76.15%,93.5%,77.8%,79.39%,57.1%
5.63 µM,3.49 µM,Cc1cc(C)nc(NS(=O)(=O)c2ccc(-n3cc(C#N)c(=O)n(-c4ccccc4)c3=S)cc2)n1,49.12%,87.3%,19.98%,62.2%,77.5%,70.8%,79.6%,47.2%
